Test [1] has as its target PA-Nter (SEQ ID NO: 22) (Influenza A virus, UniProt P31343, G154E). In kind it is binding, Influenza A virus A/Victoria/3/1975 (H3N2).
Test [2] deals with PA-Nter (SEQ ID NO: 22) endonuclease (Influenza A virus, UniProt P31343, G154E). The test is classed as biochemical, Influenza A virus A/Victoria/3/1975 (H3N2).

This note sets out measurements from patent US9890368B2, “Polypeptide fragments comprising endonuclease activity and their use” (priority 2008, dated 2018).

On to magnesium ions, for which the “increase in thermal stability upon addition of divalent cation” value in test [1] is “to a lesser extent”. On the same count and under the same terms, next, calcium: “to a lesser extent”.

As for `O=C(O)C(=O)CC(=O)c1ccccc1` [DPBA, 2,4-Dioxo-4-phenylbutanoic acid], the “inhibition of endonuclease activity on both RNA and DNA” value in test [2] is on record as “inhibited in a dose dependent manner”. Moreover, in test [1], the apparent melting temperature amounted to 65 °C, the “effect on thermal stability of metal-free enzyme” value is listed as “no effect” and the “thermal stability of PA-Nter in the presence of MnCl2” value is on record as “further stabilizes”. With manganese ions, in test [1], the apparent melting temperature is 57 °C.
